Experimental findings from the supplement of paper PMC10307832 are described below.

What all share (assay): relative viability (nuclei count vs DMSO), 5 days (fraction); higher = more cells survive
Compound in test [1]: C1=CC2=NC=CN=C2C=C1/C=C/3\C(=O)NC(=O)S3 + COc1cc2c(Oc3ccc(NC(=O)C4(C(=O)Nc5ccc(F)cc5)CC4)cc3F)ccnc2cc1OCCCN1CCOCC1 [Foretinib] (partner 0.25 µM)
The essentials: (§1)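 Dosing by pin tool came one day after lung cancer cell lines were seeded in 1536-well plates, using either one drug or a fixed anchor-drug dose plus five library-drug doses (not always all listed) in √10 steps. After 5 days, nuclei were counted on 4× images. Relative viability is treated-well nuclei count divided by vehicle-well nuclei count, and values are medians of duplicate plates.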

Compound in test [2]: C1=CC2=NC=CN=C2C=C1/C=C/3\C(=O)NC(=O)S3 + CS(=O)(=O)CCNCc1ccc(-c2ccc3ncnc(Nc4ccc(OCc5cccc(F)c5)c(Cl)c4)c3c2)o1 [Lapatinib] (partner 2 µM)
The essentials: as §1

Compound in the test “BGJ398 + OSI-027”: CCN1CCN(c2ccc(Nc3cc(N(C)C(=O)Nc4c(Cl)c(OC)cc(OC)c4Cl)ncn3)cc2)CC1 [BGJ398] + COc1cccc2cc(-c3nc([C@H]4CC[C@H](C(=O)O)CC4)n4ncnc(N)c34)[nH]c12 [OSI-027] (partner 0.5 µM)
An outline of the steps:
as §1

Compound in the test “BGJ398 + AZD7762”: CCN1CCN(c2ccc(Nc3cc(N(C)C(=O)Nc4c(Cl)c(OC)cc(OC)c4Cl)ncn3)cc2)CC1 [BGJ398] + NC(=O)Nc1cc(-c2cccc(F)c2)sc1C(=O)N[C@H]1CCCNC1 [AZD7762] (partner 0.2 µM)
An outline of the steps: as §1

On to LK-2, for which the relative viability in test [1] (first compound 0.02 µM) was found to be 1.06; in test [1] (first compound 0.06325 µM), 1.16; in test [1] (first compound 0.2 µM), 1.26; in test [1] (first compound 0.6325 µM) it was 1.03; in test [1] (first compound 2 µM), 0.789; in test [2] (first compound 0.02 µM), 1.01. Further, the relative viability is 0.992 in test [2] (first compound 0.06325 µM); 0.934 in test [2] (first compound 0.2 µM); 0.825 in test [2] (first compound 0.6325 µM); 0.481 in test [2] (first compound 2 µM); 0.18 with BGJ398 + OSI-027 (first compound 0.01 µM); 0.181 with BGJ398 + OSI-027 (first compound 0.03162 µM). Also, the relative viability with BGJ398 + OSI-027 (first compound 0.1 µM) was found to be 0.155; with BGJ398 + OSI-027 (first compound 0.3162 µM), 0.121; with BGJ398 + OSI-027 (first compound 1 µM), 0.176; in the test with BGJ398 + AZD7762 (first compound 0.01 µM) it was 0.296; with BGJ398 + AZD7762 (first compound 0.03162 µM) it was 0.329; with BGJ398 + AZD7762 (first compound 0.1 µM), 0.16. Besides, the values for the relative viability with BGJ398 + AZD7762 (first compound 0.3162 µM) and with BGJ398 + AZD7762 (first compound 1 µM) were 0.165 and 0.13, respectively.

On to LOU-NH91, for which the relative viability in test [1] (first compound 0.02 µM) is 0.917; in test [1] (first compound 0.06325 µM), 0.965; in test [1] (first compound 0.2 µM), 0.964; in test [1] (first compound 0.6325 µM), 0.923; in test [1] (first compound 2 µM) it was 0.855; in test [2] (first compound 0.02 µM) it was 0.734. Also, the relative viability was 0.786 in test [2] (first compound 0.06325 µM); 0.81 in test [2] (first compound 0.2 µM); 0.739 in test [2] (first compound 0.6325 µM); 0.585 in test [2] (first compound 2 µM); 0.667 in the test with BGJ398 + OSI-027 (first compound 0.01 µM); 0.734 with BGJ398 + OSI-027 (first compound 0.1 µM). For the same cell line, the relative viability with BGJ398 + OSI-027 (first compound 0.3162 µM) was 0.478; in the test with BGJ398 + OSI-027 (first compound 1 µM), 0.728; with BGJ398 + AZD7762 (first compound 0.01 µM), 0.753; with BGJ398 + AZD7762 (first compound 0.03162 µM), 0.779; with BGJ398 + AZD7762 (first compound 0.1 µM), 0.752; in the test with BGJ398 + AZD7762 (first compound 0.3162 µM) it was 0.664. In addition, the relative viability with BGJ398 + AZD7762 (first compound 1 µM) turned out to be 0.762.

As for LU99A, the relative viability was determined as 0.727 in test [1] (first compound 0.02 µM); 0.743 in test [1] (first compound 0.06325 µM); 0.792 in test [1] (first compound 0.2 µM); 0.822 in test [1] (first compound 0.6325 µM); 0.614 in test [1] (first compound 2 µM); 0.976 in test [2] (first compound 0.02 µM). Moreover, the relative viability is 1.06 in test [2] (first compound 0.06325 µM); 1.07 in test [2] (first compound 0.2 µM); 0.854 in test [2] (first compound 0.6325 µM); 0.645 in test [2] (first compound 2 µM); 0.268 with BGJ398 + OSI-027 (first compound 0.01 µM); 0.284 in the test with BGJ398 + OSI-027 (first compound 0.03162 µM). The relative viability stood at 0.281 in the test with BGJ398 + OSI-027 (first compound 0.1 µM); 0.308 in the test with BGJ398 + OSI-027 (first compound 0.3162 µM); 0.332 with BGJ398 + OSI-027 (first compound 1 µM); 0.429 with BGJ398 + AZD7762 (first compound 0.01 µM); 0.336 with BGJ398 + AZD7762 (first compound 0.03162 µM); 0.4 with BGJ398 + AZD7762 (first compound 0.1 µM). Moreover, the relative viability with BGJ398 + AZD7762 (first compound 0.3162 µM) came to 0.234; in the test with BGJ398 + AZD7762 (first compound 1 µM), 0.273.

With LXF-289, the relative viability in test [1] (first compound 0.02 µM) is 0.925; in test [1] (first compound 0.06325 µM), 0.92; in test [1] (first compound 0.2 µM) it was 0.953; in test [1] (first compound 0.6325 µM) it was 0.982; in test [1] (first compound 2 µM), 0.908; in test [2] (first compound 0.02 µM) it was 0.829. For the same cell line, the relative viability was determined as 0.932 in test [2] (first compound 0.06325 µM); 0.883 in test [2] (first compound 0.2 µM); 0.857 in test [2] (first compound 0.6325 µM); 0.908 in test [2] (first compound 2 µM); 0.708 with BGJ398 + OSI-027 (first compound 0.01 µM); 0.795 with BGJ398 + OSI-027 (first compound 0.03162 µM). For the same cell line, the relative viability with BGJ398 + OSI-027 (first compound 0.1 µM) was 0.806; with BGJ398 + OSI-027 (first compound 0.3162 µM), 0.768; with BGJ398 + OSI-027 (first compound 1 µM), 0.799; in the test with BGJ398 + AZD7762 (first compound 0.01 µM) it was 1.02; in the test with BGJ398 + AZD7762 (first compound 0.03162 µM), 1.03; with BGJ398 + AZD7762 (first compound 0.1 µM), 1.06. Moreover, the relative viability with BGJ398 + AZD7762 (first compound 0.3162 µM) was determined as 0.978; in the test with BGJ398 + AZD7762 (first compound 1 µM), 1.06.
